Earlier results on one molecule are cited in patent US12616202B2, “Agricultural formulations, uses thereof and processes for preparation thereof” (priority 2018, dated 2026).

`COCC(=O)N(c1c(C)cccc1C)C(C)C(=O)OC` (stereo not shown) [metalaxyl, Metalaxyl]: the water solubility is listed as 8,400 parts per million.
